In PMC5389473, “DNA polymerase β contains a functional nuclear localization signal at its N-terminus” (Nucleic Acids Research, 2016):
Peptide text beside a SMILES is read from it. * marks the point of attachment. FITC = O=C1OC2(c3ccc(O)cc3Oc3cc(O)ccc32)c2ccc(NC(=S)*)cc21

Legend:
mImpα1ΔIBB [1] = molecular target: T1, mImpα1ΔIBB (Mus musculus, UniProt P52293); test: Fluorescence polarization, direct binding of FITC-labeled pol β NLS peptide; design: species or system murine; conditions: abstract, peptide corresponding to pol β residues 2–13
T1 construct: His; made in house
Source text: The fluorescein-labeled pol β NLS peptide: S^3[…]^14-Lys(FITC), used for fluorescence polarization assays, was obtained from Genscript at a purity level of > 90%. Methyl methanesulfonate (MMS) was from Sigma-Aldrich. Following a strategy used previously ([61]), we studied a pol β complex with a double-hairpin that forms a one-nucleotide gapped DNA substrate with the following sequence: 5΄-^[…]-3΄ (underlined nucleotide is in the gap). The oligonucleotide was from Oligos Etc., Wilsonville, OR, USA. The non-hydrolyzable deoxynucleoside triphosphate 2΄-deoxyadenosine-5΄-[(α,β)-methyleno]triphosphate (dAPCPP) was obtained from Jena Bioscience.
His-tagged mImpα1 with the Importin β binding domain (IBB) deleted (mImpα1ΔIBB) and its major pocket variant (mImpα1ΔIBB[W184R/W231R]) were prepared as described previously ([56]). […] Protein concentrations were determined by the Edelhoch procedure ([63]).
(§1) Apparent peptide dissociation constants were determined based on fluorescence polarization measurements using the fluorescein-labeled pol β NLS peptide as previously described ([56]). The binding constants for the interaction of pol β lyase domain with the Importin α constructs were determined by displacement of the FITC-labeled NLS peptide using a competition assay as previously described ([56]).

hImpα5ΔIBB [2] = molecular target: T2, hImpα5ΔIBB (Homo sapiens, UniProt P52294); test: Analytical gel filtration of lyase domain / hImpα5ΔIBB mixtures; assay type: binding; conditions: 2-fold excess lyase domain, Superdex 200 10/300 GL, 1 ml/min, 20 mM HEPES, 125 mM NaCl, 5 mM DTT, 1 mM EDTA, pH 7.4
T2 construct: human Importin α5, corresponding to residues 66–512, (hImpα5ΔIBB); His (C)
Method: (§2) For an initial assessment of binding, a sample of mImpα1ΔIBB was mixed with a 2.8-fold excess of pol β lyase domain and the sample was eluted on a HiLoad 26/60 Superdex 200 column (GE Healthcare) with a buffer containing 20 mM Tris-HCl, pH 7.8, 125 mM NaCl, 2 mM DTT, 1 mM ethylenediaminetetraacetic acid. For the analytical gel filtration experiments, hImpα5ΔIBB was mixed with 2-fold excess of wild-type or the NLS variant pol β(R4S,K5S) lyase domain and the samples were eluted on a Superdex 200 10/300 GL column (GE Healthcare) with a buffer containing 20 mM HEPES, 125 mM NaCl, 5mM DTT, 1mM ethylenediaminetetraacetic acid, pH 7.4.
Supplementary Figure S4. Interaction of the pol β lyase domain with Impα5. Analytical gel filtration experiments performed on mixtures of hImpa5DIBB and either wild-type or pol b(R4S,K5S) lyase domain.
For these experiments, hImpa5DIBB was mixed with 2-fold excess of wild-type or the NLS variant pol b(R4S,K5S) lyase domain and the samples were eluted at a flow rate of 1 ml/min on a Superdex 200 10/300 GL column (GE Healthcare) with a buffer containing 20 mM HEPES, 125 mM NaCl, 5mM DTT, […]
than Impa5DIBB alone; C) a mixture of Impa5DIBB with pol b(R4S,K5S) lyase domain elutes as two […]

mImpα1ΔIBB [3] = test: Gel filtration of lyase domain / mImpα1ΔIBB mixture; assay type: binding, murine; conditions: 2.8-fold excess lyase domain, HiLoad 26/60 Superdex 200, 20 mM Tris-HCl pH 7.8, 125 mM NaCl, 2 mM DTT, 1 mM EDTA
Method: as §2
Supplementary Figure S2. Interaction of pol β lyase domain with mImpα1DIBB. A sample of mImpα1DIBB was mixed with 2.8-fold excess of pol b lyase domain and the sample was eluted on a HiLoad 26/60 Superdex 200 column (GE Healthcare) with a buffer containing 20 mM Tris-HCL, pH 7.8, […]
125 mM NaCl, 2 mM DTT, 1 mM EDTA. […]
which contain both proteins while the excess pol b lyase domain elutes in fractions 41-43.
(1 picture or pasted object on this page, not shown here)

hImpα5ΔIBB [4] = molecular target: T2, hImpα5ΔIBB; test: Ligand displacement (competition) of FITC-labeled NLS peptide by lyase domain; assay type: binding; conditions: relative to value with mImpα1ΔIBB
Method: His-tagged mImpα1 with the Importin β binding domain (IBB) deleted (mImpα1ΔIBB) and its major pocket variant (mImpα1ΔIBB[W184R/W231R]) were prepared as described previously ([56]). The minor binding pocket double mutant (mImpα1ΔIBB[W357R/W399R]) was created using the QuikChange kit (Agilent). C-terminal His-tagged human Importin α5, corresponding to residues 66–512, (hImpα5ΔIBB) was purchased from Genscript and cloned into the pET30 expression vector. All clones were sequence verified. mImpα1ΔIBB[W357R/W399R] and hImpα5ΔIBB were expressed and purified by the IMAC and gel filtration protocol previously described ([56]). Protein concentrations were determined by the Edelhoch procedure ([63]).
as §1
Figure 3. Binding of the pol β lyase domain to mImpα1ΔIBB and hImpα5ΔIBB. […] The initial fluorescence polarization value corresponds to the fraction of NLS peptide complexed with Impα, so that 100 would correspond to a fully complexed peptide. […]

mImpα1ΔIBB [5] = test: 1H-15N HSQC NMR binding study; design: species or system murine; conditions: 130 μM protein, equal concentration mImpα1ΔIBB; 50 mM Tris-d11 pH 7.6, 150 mM KCl; 25°C
Method: For the mImpα1ΔIBB binding experiments, the samples contained 0.13 mM U-[^2H,^15N]pol β and 0.13 mM mImpα1ΔIBB in a buffer consisting of 50 mM Tris-d11 (pH 7.6), 150 mM KCl, 1 mM CDTA, 1 mM dithiothreitol (DTT), 0.1 mM AEBSF, 0.04% NaN3 and 50 μM DSS as an internal chemical shift standard, with 10% D2O for ^1H-^15N HSQC experiments and 100% D2O for ^1H-^13C HSQC experiments. For studies of the effects of the R4S,K5S mutation on pol β structure and function, the [methyl-^13C]methionine-labeled pol β samples contained 0.1 mM pol β or the NLS-variant in the above 100% D2O buffer along with 0.11 mM of a 1-nucleotide gapped double-hairpin DNA substrate and 0.14 mM of the non-hydrolyzable nucleoside triphosphate substrate dAPCPP. Nuclear magnetic resonance (NMR) experiments were performed at 25°C on a Varian UNITY INOVA 600 or 800 MHz NMR spectrometer, using a 5 mm Varian ^1H{^13C,^15N} triple-resonance room-temperature or Cold Probe, equipped with actively shielded Z-gradients. The ^1H-^13C HSQC spectra were acquired using Varian's gChsqc sequence. The spectra were processed using NMRPipe version 2.1 ([64]) and analyzed using NMRView version 5.0.4 ([65]). All spectra were processed using squared cosine bell apodization functions in all dimensions and forward-backward linear prediction in the indirect dimension ([66]).
Figure 1. […]

T2 sequence (P52294 66-512, stated change not applied): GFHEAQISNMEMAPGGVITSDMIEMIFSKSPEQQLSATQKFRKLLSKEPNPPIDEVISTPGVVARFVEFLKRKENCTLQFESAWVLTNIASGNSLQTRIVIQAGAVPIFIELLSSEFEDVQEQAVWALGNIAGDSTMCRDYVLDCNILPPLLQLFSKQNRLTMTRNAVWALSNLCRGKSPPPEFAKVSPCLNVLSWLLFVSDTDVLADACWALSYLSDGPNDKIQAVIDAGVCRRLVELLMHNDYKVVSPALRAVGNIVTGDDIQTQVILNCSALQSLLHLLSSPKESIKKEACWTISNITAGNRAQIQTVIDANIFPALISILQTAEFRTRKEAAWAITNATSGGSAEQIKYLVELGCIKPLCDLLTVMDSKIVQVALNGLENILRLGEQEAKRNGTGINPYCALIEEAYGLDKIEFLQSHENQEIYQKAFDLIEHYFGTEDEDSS

Row | Molecule | Kd (in words) (mImpα1ΔIBB [1]) | complex formation by analytical gel filtration (hImpα5ΔIBB [2]; listed as pol b lyase domain) | complex formation by analytical gel filtration (hImpα5ΔIBB [2]; listed as wild-type lyase domain) | complex formation by gel filtration (mImpα1ΔIBB [3]) | complex formation by gel filtration (mImpα1ΔIBB [3]; listed as pol b lyase domain) | increase in affinity, hImpα5ΔIBB vs mImpα1ΔIBB (hImpα5ΔIBB [4]) | effect of mImpα1ΔIBB on 1H-15N HSQC resonances (mImpα1ΔIBB [5])
1 | CC(C)C[C@H](NC(=O)[C@@H](NC(=O)[C@H](CCC(=O)O)NC(=O)[C@H](CCC(N)=O)NC(=O)[C@@H]1CCCN1C(=O)[C@H](C)NC(=O)[C@H](CCCCN)NC(=O)[C@H](CCCNC(=N)N)NC(=O)[C@H](CCCCN)NC(=O)[C@@H](N)CO)[C@@H](C)O)C(=O)N[C@@H](CC(N)=O)C(=O)NCC(=O)NCC(=O)N[C@@H](CCCCNC(=S)Nc1ccc2c(c1)C(=O)OC21c2ccc(O)cc2Oc2cc(O)ccc21)C(=O)O (H-SKRKAPQETLNGGK(FITC)-OH) | low micromolar Kd | – | – | – | – | – | –
2 | Pol β lyase domain: N-terminal lyase domain of pol β (residues 2–87) | – | a complex of Impa5DIBB with pol b lyase domain elutes earlier | does elute as a complex | indicated an interaction between the two proteins | the complex elutes in fractions 28-32 | 8 fold | broadened lyase domain amide resonances
